Test results: ChEMBL document CHEMBL1149953 (Bioorg Med Chem Lett, 1996)

Experiments:
[1] = target: T1, Type-1 angiotensin II receptor B (Rattus norvegicus, UniProt P29089); assay: In vitro ability to displace the specific binding of [125I]-A II from receptors in rat liver membrane(type 1 receptor)
T1 sequence (P29089 whole entry): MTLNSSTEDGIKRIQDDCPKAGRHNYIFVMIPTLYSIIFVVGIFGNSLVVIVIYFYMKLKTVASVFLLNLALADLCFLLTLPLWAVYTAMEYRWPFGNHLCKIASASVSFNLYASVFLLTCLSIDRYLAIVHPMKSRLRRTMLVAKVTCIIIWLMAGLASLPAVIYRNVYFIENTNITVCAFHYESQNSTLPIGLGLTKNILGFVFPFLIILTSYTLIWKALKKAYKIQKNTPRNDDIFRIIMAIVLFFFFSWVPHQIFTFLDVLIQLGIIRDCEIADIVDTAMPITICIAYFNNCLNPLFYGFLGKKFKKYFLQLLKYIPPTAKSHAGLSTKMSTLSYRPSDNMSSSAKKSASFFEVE

[2] = tested on: Rattus norvegicus; assay: In vivo potency to inhibit the pressor response induced by angiotensin II (100ng/Kg, iv) in conscious normotensive rat at 24 hours after administration of 0.3 mg/kg, po; assay type: functional
[3] = tested on: Rattus norvegicus; assay: In vivo potency to inhibit the pressor response induced by angiotensin II (100ng/Kg, iv) in conscious normotensive rat at 24 hours after administration of 1 mg/kg, po; assay type: functional
[4] = tested on: Rattus norvegicus; assay: In vivo potency to inhibit the pressor response induced by angiotensin II (100ng/Kg, iv) in conscious normotensive rat at 24 hours after administration of 3 mg/kg, po; assay type: functional; settings: for inhibition in vivo at 3 mg/kg: Rattus norvegicus, po, 24 h
[5] = tested on: Rattus norvegicus; assay: In vivo potency to inhibit the pressor response induced by angiotensin II (100ng/Kg, iv) in conscious normotensive rat at 6 hours after administration of 0.3 mg/kg, po; assay type: functional
[6] = tested on: Rattus norvegicus; assay: In vivo potency to inhibit the pressor response induced by angiotensin II (100ng/Kg, iv) in conscious normotensive rat at 6 hours after administration of 1 mg/kg, po; assay type: functional
[7] = tested on: Rattus norvegicus; assay: In vivo potency to inhibit the pressor response induced by angiotensin II (100ng/Kg, iv) in conscious normotensive rat at 6 hours after administration of 3 mg/kg, po; assay type: functional; settings: for inhibition in vivo at 3 mg/kg: Rattus norvegicus, po, 6 h
[8] = tested on: Rattus norvegicus; assay: Compound was tested for antihypertensive effect in renal hypertensive rats at 1 mg/kg, po expressed as percent reduction in blood pressure; assay type: functional
[9] = tested on: Rattus norvegicus; assay: Compound was tested for antihypertensive effect in renal hypertensive rats at 3 mg/kg, po expressed as percent reduction in blood pressure; assay type: functional
[10] = tested on: Rattus norvegicus; assay: Compound was tested for antihypertensive effect in renal hypertensive rats at 10 mg/kg, po expressed as percent reduction in blood pressure; assay type: functional
[11] = tested on: Rattus norvegicus; assay: Compound was tested for antihypertensive effect in renal hypertensive rats at 0.3 mg/kg, po expressed as percent reduction in blood pressure; assay type: functional
[12] = tested on: Rattus norvegicus; assay: In vivo potency to inhibit the pressor response induced by angiotensin II (100ng/Kg, iv) in conscious normotensive rat at 6 hours after administration of 0.1 mg/kg, po
[13] = tested on: Rattus norvegicus; assay: In vivo potency to inhibit the pressor response induced by angiotensin II (100ng/Kg, iv) in conscious normotensive rat at 24 hours after administration of 0.1 mg/kg, po
[14] = tested on: Rattus norvegicus; assay: Antihypertensive effect as reduction in blood pressure in renal hypertensive rats at 10 mg/kg dose specified administered perorally; assay type: functional; design: scale not given: the % may be the effect or the level left; settings: route oral
[15] = tested on: Rattus norvegicus; assay: Antihypertensive effect as reduction in blood pressure in renal hypertensive rats at 3 mg/kg dose specified administered perorally; assay type: functional; design: scale not given: the % may be the effect or the level left; settings: route oral
[16] = tested on: Rattus norvegicus; assay: In vivo potency to inhibit the pressor responses induced by angiotensin II (100ng/kg, iv) in conscious normotensive rat at 10 mg/kg dose specified 24 hr after peroral administration; assay type: functional; settings: route oral
[17] = tested on: Rattus norvegicus; assay: In vivo potency to inhibit the pressor responses induced by angiotensin II (100ng/kg, iv) in conscious normotensive rat at 10 mg/kg dose specified 6 hr upon peroral administration; assay type: functional; settings: route oral
[18] = tested on: Rattus norvegicus; assay: In vivo potency to inhibit the pressor responses induced by angiotensin II (100ng/kg, iv) in conscious normotensive rat at 3 mg/kg dose specified 24 hr after peroral administration; assay type: functional; settings: route oral
[19] = tested on: Rattus norvegicus; assay: In vivo potency to inhibit the pressor responses induced by angiotensin II (100ng/kg, iv) in conscious normotensive rat at 1 mg/kg dose specified 24 hr after peroral administration; assay type: functional; settings: route oral
[20] = tested on: Rattus norvegicus; assay: In vivo potency to inhibit the pressor responses induced by angiotensin II (100ng/kg, iv) in conscious normotensive rat at 3 mg/kg dose specified 6 hr upon peroral administration; assay type: functional; settings: route oral
[21] = tested on: Rattus norvegicus; assay: In vivo potency to inhibit the pressor responses induced by angiotensin II (100ng/kg, iv) in conscious normotensive rat at 1 mg/kg dose specified 6 hr upon peroral administration; assay type: functional; settings: route oral

Q: Which results are given for CCc1nn(Cc2ccc(-c3ccccc3-c3nn[nH]n3)cc2)/c(=N/C(=O)C2=C(C(=O)O)CCC2)s1?
A: IC50 [1]: 0.44 nM; inhibition in vivo at 0.3 mg/kg ([2]; Rattus norvegicus, po, 24 h): 15%; Inhibition [3]: 36.6%; Inhibition [4]: 63.1%; Inhibition [5]: 22.4%; Inhibition [6]: 36.4%; Inhibition [7]: 39.5%; Reduction [8]: 33.5%; Reduction [9]: 44.3%

Q: Which IC50 [1] does the source give for CCc1nn(Cc2ccc(-c3ccccc3-c3nn[nH]n3)cc2)/c(=N/C(=O)c2ccccc2)s1 here?
A: 37 nM

Q: And the inhibition in vivo at 3 mg/kg [4]?
A: -0.4%

Q: What about the inhibition in vivo at 3 mg/kg [7] of the same compound?
A: 4.9%

Q: How did the IC50 [1] turn out when CCc1nn(Cc2ccc(-c3ccccc3-c3nn[nH]n3)cc2)/c(=N/C(=O)c2ccccc2Cl)s1 was run?
A: 3.6 nM

Q: And the inhibition in vivo at 3 mg/kg [4]?
A: -11.3%

Q: What about the inhibition in vivo at 3 mg/kg [7] of the same compound?
A: 21.3%

Q: What about the Reduction [10] of the same compound?
A: 20.2%

Q: CCc1nn(Cc2ccc(-c3ccccc3-c3nn[nH]n3)cc2)/c(=N/C(=O)C2CC2)s1 was tested. Which IC50 [1] did it give?
A: 6.5 nM

Q: And the inhibition in vivo at 3 mg/kg [4]?
A: -12.4%

Q: And the inhibition in vivo at 3 mg/kg [7]?
A: 7.8%

Q: With CCc1nn(Cc2ccc(-c3ccccc3-c3nn[nH]n3)cc2)/c(=N/C(=O)C2=C(C(=O)[O-])CCC2)s1.[K+] as the compound, how does the Inhibition [2] read?
A: 20.7%

Q: What about the Inhibition [3] of the same compound?
A: 57%

Q: And the Inhibition [5]?
A: 45.4%

Q: And the Inhibition [6]?
A: 72.1%

Q: What about the Reduction [11] of the same compound?
A: 27.2%

Q: And the Reduction [8]?
A: 38.4%

Q: And the Inhibition [12]?
A: 11.4%

Q: And the Inhibition [13]?
A: -0.7%

Q: CCc1nn(Cc2ccc(-c3ccccc3-c3nn[nH]n3)cc2)/c(=N/C(=O)c2ccccc2C(=O)O)s1 was tested. Which IC50 [1] did it give?
A: 0.66 nM

Q: What about the inhibition in vivo at 3 mg/kg [4] of the same compound?
A: 23.2%

Q: And the inhibition in vivo at 3 mg/kg [7]?
A: 48.1%

Q: What about the Reduction [10] of the same compound?
A: 33.8%

Q: What about the Reduction [9] of the same compound?
A: 25.1%

Q: What does the source list for CCc1nn(Cc2ccc(-c3ccccc3-c3nn[nH]n3)cc2)/c(=N/C(C)=O)s1?
A: IC50 [1]: 7.2 nM; inhibition in vivo at 3 mg/kg [4]: -10.3%; inhibition in vivo at 3 mg/kg [7]: 11.3%

Q: With CCCCc1nc(Cl)c(CO)n1Cc1ccc(-c2ccccc2-c2nnn[n-]2)cc1.[K+] [LOSARTAN POTASSIUM] as the compound, how does the Activity [14] read?
A: 40.4%

Q: What about the Activity [15] of the same compound?
A: 27.4%

Q: And the inhibition in vivo at 10 mg/kg [16]?
A: 57.4%

Q: What about the inhibition in vivo at 10 mg/kg [17] of the same compound?
A: 74.2%

Q: What about the inhibition in vivo at 3 mg/kg [18] of the same compound?
A: 27.9%

Q: And the inhibition in vivo at 1 mg/kg [19]?
A: 7.3%

Q: And the inhibition in vivo at 3 mg/kg [20]?
A: 50.1%

Q: And the inhibition in vivo at 1 mg/kg [21]?
A: 19.3%
